{"source": "paper PMC8980233", "about": "“Differentiating the Neuropharmacological Properties of Nicotinic Acetylcholine Receptor-Activating Alkaloids” (Frontiers in Pharmacology, 2022)", "target": "α7 nAChR (Homo sapiens, UniProt P36544)", "sequence (P36544 23-502)": "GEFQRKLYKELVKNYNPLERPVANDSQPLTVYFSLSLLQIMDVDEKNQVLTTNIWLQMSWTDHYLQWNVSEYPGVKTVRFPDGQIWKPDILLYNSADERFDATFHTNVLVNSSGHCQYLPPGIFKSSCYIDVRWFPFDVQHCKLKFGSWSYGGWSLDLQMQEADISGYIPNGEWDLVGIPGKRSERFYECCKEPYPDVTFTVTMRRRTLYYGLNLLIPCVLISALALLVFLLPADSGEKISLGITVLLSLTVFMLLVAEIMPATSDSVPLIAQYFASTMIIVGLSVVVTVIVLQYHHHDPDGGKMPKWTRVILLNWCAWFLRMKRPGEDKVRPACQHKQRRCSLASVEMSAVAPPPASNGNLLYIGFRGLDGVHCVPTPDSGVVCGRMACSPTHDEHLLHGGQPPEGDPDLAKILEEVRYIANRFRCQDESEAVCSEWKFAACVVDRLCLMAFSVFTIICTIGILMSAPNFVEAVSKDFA", "experiment": "nAChR functional assay, automated patch-clamp", "type": "cell-based", "conditions": "mean ± S.D.; no effect = up to 33 μM", "method": "Electrophysiological responses were recorded using an automated patch-clamp Patchliner Octo® system (Nanion Technologies, Munich, Germany) equipped with two EPC-10 Quadro patch-clamp amplifiers (HEKA Elektronik, Lambrecht, Germany) as described by ([Alijevic et al., 2020]). In brief, Chinese hamster ovary (CHO) or human embryonic kidney-293 (HEK-293) cells stably expressing human nAChRs (Charles River Laboratories, Wilmington, MA, United States) were maintained in DMEM/F12 medium (Gibco, Thermo Fisher Scientific, Waltham, MA, United States) supplemented with 10% heat-inactivated fetal bovine serum (FBS; Gibco) and penicillin–streptomycin (100 U/mL and 0.1 mg/ml, respectively; Sigma-Aldrich, St. Louis, MO, United States) at 37°C in 5% CO2 and 70% humidity. The following selection antibiotics were used for the cell lines: G418 (0.25 mg/ml; Sigma-Aldrich) and Zeocin^TM (0.4 mg/ml; InvivoGen, San Diego, CA, United States) for α7/Ric3 nAChR and α3β4 nAChR cells; puromycin (8 μg/ml; InvivoGen) and hygromycin B (0.4 mg/ml; Gibco) for α4β2 nAChR cells; and G418 (0.5 mg/ml), puromycin (0.25 μg/ml), and hygromycin B (0.02 mg/ml) for α6/3β2/β3 nAChR cells. The cells were used for characterizing nAChR pharmacology, because no endogenous ionotropic nicotinic receptors are found ([Roncarati et al., 2008]; [Papke and Smith-Maxwell, 2009]; [Kirsch et al., 2016]; [Scheffel et al., 2018]). The subunit distributions in the cells have been previously described ([Alijevic et al., 2020]). The human nAChRs were selected due to the lack of commercially available nAChR expression systems for mouse or zebrafish. The translatability of findings between zebrafish and human nAChR activities have been previously reported ([Papke and Smith-Maxwell, 2009]; [Papke et al., 2012]; [Alijevic et al., 2020]).\nOn the day of the experiment, nAChR-expressing cells were suspended in extracellular solution (in mM: 140 NaCl, 4KCl, one MgCl2, two CaCl2, five glucose, and 10 HEPES, adjusted to pH 7.4 with NaOH (298 mOsmol)), then placed in the Patchliner Octo® system. The internal solution contained in mM: 50 KCl, 60 kF, 10 NaCl, 20 EGTA, and 10 HEPES, adjusted to pH 7.2 with KOH (285 mOsmol). […] Data were analyzed using the Patchmaster software and corrected for leak current. The data acceptance criteria were as follows: seal resistance >100 MΩ; seal resistance loss variation <50%; access resistance <20 MΩ; and minimum current amplitude elicited by maximal effect concentration acetylcholine >50 pA. Offline data analysis was performed in OpenOffice™ (v4.1.2; The Apache Software Foundation, Wakefield, MA, United States). Data are presented as mean ± S.D. All experiments were performed at room temperature (24°C) and repeated at least three times. Igor Pro (v6.2.2.2; WaveMetrics, Lake Oswego, OR, United States) or Prism (v8.2.1) were used for assessing the concentration–response curves.", "note": "Entries after “also recorded” stand apart in the source; their conditions may differ."}
{"compound": "CN1C(=O)CC[C@H]1c1cccnc1", "note": "[Cotinine, (-)-cotinine]", "values": [{"measurement": "α7 nAChR EC50 in µM", "value": "no detectable activities; also recorded: No effect*"}]}
